US7163933B2, “Treating agent for Paget's disease of bone” (Teijin Limited, priority 2002, dated 2007)

Experiments:
[1] = system: human 25-hydroxyvitamin D3-24-hydroxylase gene promoter; assay: 25-hydroxyvitamin D3-24-hydroxylase (24-OHase) luciferase reporter assay in NIH3T3 cells; assay type: cell-based, mouse
Description: The promoter region of the human 25-hydroxyvitamin D3-24-hydroxylase gene(−186/−5), which contains two vitamin D responsive elements (VDRE) was cloned into a luciferase reporter vector pGL3-Basic Vector (Promega; Madison, Wis.). This plasmid construct was cotransfected with a β-galactosidase expression plasmid into pcDNA3.1-Neo-hTAFII-17-CDS (Example 2) or its empty vector-transfected mouse fibroblastic cell line NIH3T3 cells by lipofection (LipofectAMINE; GIBCO BRL; Grand Island, N.Y.). Sixteen hours after the transfection, vehicle (0.1% ethanol) or 1α,25-(OH)2D3 (10^−10 to 10^−8 M) was added. Forty-eight hours later, the cells were harvested in the cell lysate solution provided with the luciferase assay kit (Promega; Madison, Wis.). The luciferase activities of the cell lysates were measured with the luciferase assay kit according to the manufacturer's instructions and was standardized with the β-galactosidase activities of the same cell lysates determined with a β-galactosidase enzyme assay system (Promega; Madison, Wis.).

[2] = system: bone marrow cells from patients with Paget's disease of bone; assay: Osteoclast formation in bone marrow cultures from patients with Paget's disease of bone (23C6-positive cells with three or more nuclei); assay type: cell-based, human
Description: (§1) Mononuclear cells were fractionated from bone marrow cells of healthy normal adults and patients with Paget's disease of bone according to a method of Kurihara et al. (Endocrinology, vol. 126, 2733–2741 (1990) and Journal of Clinical Investigation, vol. 105, 606–614 (2000)). Briefly, bone marrow cells were obtained from normal adults and patients with Paget's disease of bone, a mononuclear cell fraction was collected by Hypaque-Ficoll density gradient centrifugation, the cell fraction was washed with α-Minimal Essential Media (α-MEM, GIBCO BRL; Grand Island, N.Y.) 3 times, and the cells were dispersed in α-MEM containing 10% fetal bovine serum (GIBCO BRL; Grand Island, N.Y.). This mononuclear cell suspension was seeded on 100-mm tissue culture plates, the culture plates were kept for 90 minutes at 37° C. in a 5% CO2-air atmosphere, and the non-adherent cells were collected.
Mononuclear cells were fractionated from bone marrow cells of patients with Paget's disease of bone as described in Example 1. The collected mononuclear cells were dispersed in an α-MEM culture medium containing 20% horse serum in such a manner that the concentration became 10^6 cells/ml, and seeded on a 96-well multiplate at 100 μl/well. The suppression effect of Compound 11 (23S isomer) on osteoclast formation in the bone marrow cells of patients with Paget's disease of bone induced by 1α,25-dihydroxyvitamin D3 was evaluated as follows. Into each well, 1α,25-dihydroxyvitamin D3 of various concentrations, Compound 11 (23S isomer) of various concentrations, or a combination of 10^−10 M 1α,25-dihydroxyvitamin D3 and Compound 11 (23S isomer) of various concentrations was added. The culture medium was replaced two times a week, and culture was continued for 3 weeks at 37° C. in an incubator of 5% CO2-air. After the culture, the culture product was subjected to 23C6 antibody (antibody; gift from Dr. Michael A. Horton, Rayne Institute, Bone and Mineral Center, London, United Kingdom) alkaline phosphatase dyeing (VECTASTAIN-ABC-AP kit; Vector Laboratories, Burlingame, Calif.), and the nuclei were dyed with methyl green. Cells that were positive to 23C6 antibody and had three or more nuclei were determined as osteoclast, and the number of all osteoclasts in each well was counted.

TAFII-17 gene = TAFII-17 gene expression (RT-PCR, band density vs β-actin) in bone marrow mononuclear cells from patients with Paget's disease of bone; assay type: cell-based, human
Description: as §1
Mononuclear cells were prepared from bone marrow collected from patients with Paget's disease of bone according to a method described in Example 1. The collected mononuclear cells were dispersed in an α-MEM culture medium containing 20% horse serum in such a manner that the concentration became 3.3×10^5 cells/ml, seeded on 35-mm tissue culture plates at 3 ml/plate, and cultured for 12 hr at 37° C. in an incubator of 5% CO2-air in the presence of 10^−10 M 1α, 25-dihydroxyvitamin D3 and 10^−8 M Compound 11 (23S isomer) of the present invention singly, or in the presence of 10^−10 M 1α, 25-dihydroxyvitamin D3 and 10^−8 M Compound 11 (23S isomer) together. Subsequently, the cells were collected by centrifuge, RNA was extracted according to a routine procedure after the addition of 1 ml of an RNAzol B solution, and the resulting RNA was converted into cDNA by using a reverse transcriptase. The TAFII-17 gene was subjected to PCR reaction of 35 cycles each consisting of 1 min at 94° C., 1 min at 55° C. and 1 min at 72° C. using 5′-[…]-3′ (SEQ ID NO: 14) (sense) and 5′-[…]-3′(SEQ ID NO: 15) (antisense) as the primers. The PCR products were fractionated by electrophoresis using 2% agarose gel. As a house-keeping gene, β-actin was subjected to PCR reaction in the same manner, and the PCR products were fractionated by electrophoresis using 2% agarose gel. The densities of the bands of the TAFII-17 gene and the β-actin gene were determined by an image analyzer.

[3] = test substance alone at 10^−7 M, 3 weeks culture
[4] = test substance alone at 10^−8 M, 3 weeks culture
[5] = test substance alone at 10^−9 M, 3 weeks culture
[6] = test substance alone at 10^−10 M, 3 weeks culture
[7] = test substance alone at 10^−11 M, 3 weeks culture

## C=C1/C(=C\C=C2/CCC[C@]3(C)[C@@H]([C@H](C)CCCC(C)(C)O)CC[C@@H]23)C[C@@H](O)C[C@@H]1O [1α,25-dihydroxyvitamin D3, reference compound]
[1]; TAFII-17 gene-transfected NIH3T3 cells, 10^−8 M 1α,25-(OH)2D3, 48 h
  expression of 25-hydroxyvitamin D3-24-hydroxylase gene (reporter, in words): extremely accelerated
[1]; TAFII-17 gene-transfected NIH3T3 cells, 10^−9 M 1α,25-(OH)2D3, 48 h
  expression of 25-hydroxyvitamin D3-24-hydroxylase gene (reporter, in words): accelerated
[1]; empty vector-transfected NIH3T3 cells, 10^−8 M 1α,25-(OH)2D3, 48 h
  expression of 25-hydroxyvitamin D3-24-hydroxylase gene (reporter, in words): detected
[1]; empty vector-transfected NIH3T3 cells, 10^−9 M 1α,25-(OH)2D3, 48 h
  expression of 25-hydroxyvitamin D3-24-hydroxylase gene (reporter, in words): hardly detected
[2]; 1α,25-dihydroxyvitamin D3 alone
  concentration exhibiting almost the maximum activity on osteoclast formation: ~10^−9 M
[2]; 1α,25-dihydroxyvitamin D3 alone, range of 10^−11 M to 10^−7 M
  osteoclast formation (in words): stimulated osteoclast formation concentration-dependently
[2]; [3]
  osteoclast formation (average number of cells ± S.D.): 205 ± 6 cells
[2]; [4]
  osteoclast formation (average number of cells ± S.D.): 206 ± 16 cells
[2]; [5]
  osteoclast formation (average number of cells ± S.D.): 211 ± 25 cells
[2]; [6]
  osteoclast formation (average number of cells ± S.D.): 180 ± 15 cells
[2]; [7]
  osteoclast formation (average number of cells ± S.D.): 134 ± 14 cells
TAFII-17 gene; 10^−10 M 1α,25-(OH)2D3 singly, 12 hr culture
  TAFII-17/β-actin: 100 arbitrary units

## C=C1C[C@H](C[C@H](C)[C@H]2CC[C@H]3/C(=C/C=C4/C[C@@H](O)C[C@H](O)C4=C)CCC[C@]23C)OC1=O (single isomer, unassigned) [Compound 11 (23S isomer)]
[2]; 10^−6 M compound 11 (23S isomer) + 10^−10 M 1α,25-dihydroxyvitamin D3, 3 weeks culture
  osteoclast formation (average number of cells ± S.D.): 1 ± 1 cells
[2]; 10^−7 M compound 11 (23S isomer) + 10^−10 M 1α,25-dihydroxyvitamin D3, 3 weeks culture
  osteoclast formation (average number of cells ± S.D.): 14 ± 1 cells
[2]; 10^−8 M compound 11 (23S isomer) + 10^−10 M 1α,25-dihydroxyvitamin D3, 3 weeks culture
  osteoclast formation (average number of cells ± S.D.): 63 ± 5 cells
[2]; 10^−9 M compound 11 (23S isomer) + 10^−10 M 1α,25-dihydroxyvitamin D3, 3 weeks culture
  osteoclast formation (average number of cells ± S.D.): 125 ± 5 cells
[2]; 10^−10 M compound 11 (23S isomer) + 10^−10 M 1α,25-dihydroxyvitamin D3, 3 weeks culture
  osteoclast formation (average number of cells ± S.D.): 155 ± 6 cells
[2]; 10^−11 M compound 11 (23S isomer) + 10^−10 M 1α,25-dihydroxyvitamin D3, 3 weeks culture
  osteoclast formation (average number of cells ± S.D.): 170 ± 13 cells
[2]; Compound 11 (23S isomer) added simultaneously, range of 10^−11 M to 10^−6 M
  osteoclast formation induced by 10^−10 M 1α,25-dihydroxyvitamin D3 (in words): suppressed
[2]; Compound 11 (23S isomer) alone at 10^−6 M
  osteoclast formation (in words): did not caused any osteoclast formation
[2]; Compound 11 (23S isomer) by itself
  osteoclast formation (in words): rather inhibited the osteoclast formation
[2]; test substance alone at 10^−6 M, 3 weeks culture
  osteoclast formation (average number of cells ± S.D.): 1 ± 1 cells
[2]; [3]
  osteoclast formation (average number of cells ± S.D.): 8 ± 2 cells
[2]; [4]
  osteoclast formation (average number of cells ± S.D.): 9 ± 3 cells
[2]; [5]
  osteoclast formation (average number of cells ± S.D.): 16 ± 2 cells
[2]; [6]
  osteoclast formation (average number of cells ± S.D.): 20 ± 4 cells
[2]; [7]
  osteoclast formation (average number of cells ± S.D.): 29 ± 5 cells
TAFII-17 gene; 10^−8 M Compound 11 (23S isomer) added alone
  expression of TAFII-17 gene (in words): remarkably suppressed
TAFII-17 gene; 10^−8 M Compound 11 (23S isomer) singly, 12 hr culture
  TAFII-17/β-actin: 6.82 arbitrary units
TAFII-17 gene; 10^−8 M Compound 11 (23S isomer) together with 10^−10 M 1α,25-(OH)2D3, 12 hr culture
  TAFII-17/β-actin: 46.89 arbitrary units
TAFII-17 gene; addition of 10^−8 M Compound 11 (23S isomer)
  expression of TAFII-17 gene accelerated by 10^−10 M 1α,25-(OH)2D3 (in words): strongly suppressed
